According to patent publication US10072304B2, “Nuclear localization of Src-family tyrosine kinases is required for growth factor-induced euchromatinization” (National University Corporation Chiba University, priority 2009, dated 2018):
“Also recorded” adds a separate entry of the source.

System: SYF cells
Experiment: Quantitation of chromatin condensation levels (S.D. value of PI intensity per pixel) in SYF cells
Format: cell-based, mouse
Settings: 3 mM Na3VO4 for 3 h
Description: COS-1, HeLa cells (Japanese Collection of Research Bioresources, Osaka), MCF-7 (provided by H. Saya), A431 (provided by M. N. Fukuda), HEK293 (provided by M. Tagawa), HCT116 (provided by T. Tomonaga), and SYF ([37]; provided by M. Okada and S. Nada) cells were cultured in Iscove's modified DME containing 5% fetal bovine serum (FBS). Cells were transiently transfected with 0.5 μg of plasmid vector using Trans IT Transfection reagent (Mirus) or with 1 μg of plasmid vector using linear polyethylenimine (25 kDa) (Polyscience, Inc.). For growth factor stimulation, COS-1 cells were starved under low serum conditions (0.05% FBS) for 24 h and restimulated with serum (5% FBS). […]
Confocal and Nomarski differential-interference-contrast images were obtained using a Fluoview FV500 confocal laser scanning microscope with a 40×1.00 NA oil and a 100×1.35 NA oil immersion objective (Olympus, Tokyo) and an LSM 510 confocal laser scanning microscope with a 63×1.40 NA oil immersion objective (Zeiss), as described. […] Emission signals were detected between 505 and 525 nm for fluorescein, at more than 560 nm for rhodamine and more than 610 nm for PI [44]. […] Fluorescence intensity plots of anti-histone H3K4me3, anti-ATF-2 pT69/71 and anti-HP1α antibody and PI staining (see FIGS. 18B, 19B, and 20B, respectively) were generated using Fluoview version 4.3 software (Olympus, Tokyo). […]

[Na+].[Na+].[Na+].[O]=[V]([O-])([O-])[O-] [Na3VO4, sodium orthovanadate]
levels of chromatin hypo- and hypercondensation (SYF cells, FIG. 49): much lower than those in Na3VO4-treated COS-1 cells; also recorded: modestly induced
chromatin hypo- and hypercondensation (SYF/c-Src-wt cells, FIGS. 48A and 49): an increase
